Source: publication PMC6934184, “Selective DNA-PKcs inhibition extends the therapeutic index of localized radiotherapy and chemotherapy” (The Journal of Clinical Investigation, 2019)

Target: T1, MST4 (Homo sapiens, UniProt Q9P289)
T1 construct: purchased Thermo Fisher Scientific (Life Technologies) SelectScreen
Test: SelectScreen Z'LYTE
Format: biochemical
In short: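 NU5455 was profiled across the SelectScreen Broad panel of kinase activity and binding assays. Z'LYTE reactions such as CSF1R ran at apparent Km ATP, while the Adapta CAMK1 assay used ATP listed as 10. Values are given as percent.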

T1 sequence (Q9P289 whole entry): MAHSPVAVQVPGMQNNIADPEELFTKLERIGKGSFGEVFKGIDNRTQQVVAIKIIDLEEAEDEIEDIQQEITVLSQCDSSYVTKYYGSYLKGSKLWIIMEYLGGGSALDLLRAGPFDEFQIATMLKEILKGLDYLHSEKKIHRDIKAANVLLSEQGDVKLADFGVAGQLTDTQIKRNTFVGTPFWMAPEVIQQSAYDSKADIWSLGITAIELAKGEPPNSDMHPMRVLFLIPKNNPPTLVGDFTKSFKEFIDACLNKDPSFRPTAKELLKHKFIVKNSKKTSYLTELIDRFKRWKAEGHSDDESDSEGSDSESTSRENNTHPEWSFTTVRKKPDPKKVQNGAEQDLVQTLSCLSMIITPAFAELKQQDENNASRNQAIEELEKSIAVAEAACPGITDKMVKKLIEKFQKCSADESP

CN(C(=O)CN1CCOCC1)c1ccc2sc3c(-c4cccc5c(=O)cc(N6CC7CCC(C6)O7)oc45)cccc3c2c1 [NU5455]
inhibition at 1 µM: 6.9%
